According to publication PMC7730458, “Rational Computational Design of Fourth-Generation EGFR Inhibitors to Combat Drug-Resistant Non-Small Cell Lung Cancer” (International Journal of Molecular Sciences, 2020):
Read-outs that look alike come from different tables or passages of the source.

Tests used:
[1] = system: Ba/F3 cell lines with the d746-750/T790M/C797S mutant EGFR; test: cell proliferation inhibition assay, Ba/F3 triple mutant EGFR; settings: for IC50: Mus musculus, BaF3, 72 h, read-out: IC50 Ba/F3^d746-750/T790M/C797S; for Selectivity: Table 4, Ba/F3 wild type IC50 over mutant IC50
Procedure: (§3) The cells were treated with various concentrations of the compounds in duplicate. After 72 h, the fluorescence signals were measured at an excitation wavelength of 540 nm and an emission wavelength of 590 nm using a microplate reader. More specifically, the number of living cells was determined with CellTiter-Glo® Luminescent Cell Viability Assay (Promega).

[2] = system: Ba/F3 cell lines with the wild type EGFR; test: cell proliferation inhibition assay, Ba/F3 wild-type EGFR; settings: Mus musculus, BaF3, 72 h, read-out: IC50 Ba/F3
Procedure: as §3

[3] = biological target: T1, d746-750/T790M/C797S mutant EGFR (Homo sapiens, UniProt P00533, C797S/DEL746-750/T790M); test: radiometric ([γ-33P]-ATP) kinase assay, triple mutant EGFR; format: biochemical; settings: for Selectivity Index (IC50^WT/IC50^mutant): ratio of IC50 for the wild type to that for the triple mutant; for Selectivity: wild type IC50 over triple mutant IC50
T1 construct: purchased Reaction Biology Corp. (Malvern, PA, USA)
T1 sequence (P00533 with tags, fused parts or gaps DEL746-750/T790M/C797S): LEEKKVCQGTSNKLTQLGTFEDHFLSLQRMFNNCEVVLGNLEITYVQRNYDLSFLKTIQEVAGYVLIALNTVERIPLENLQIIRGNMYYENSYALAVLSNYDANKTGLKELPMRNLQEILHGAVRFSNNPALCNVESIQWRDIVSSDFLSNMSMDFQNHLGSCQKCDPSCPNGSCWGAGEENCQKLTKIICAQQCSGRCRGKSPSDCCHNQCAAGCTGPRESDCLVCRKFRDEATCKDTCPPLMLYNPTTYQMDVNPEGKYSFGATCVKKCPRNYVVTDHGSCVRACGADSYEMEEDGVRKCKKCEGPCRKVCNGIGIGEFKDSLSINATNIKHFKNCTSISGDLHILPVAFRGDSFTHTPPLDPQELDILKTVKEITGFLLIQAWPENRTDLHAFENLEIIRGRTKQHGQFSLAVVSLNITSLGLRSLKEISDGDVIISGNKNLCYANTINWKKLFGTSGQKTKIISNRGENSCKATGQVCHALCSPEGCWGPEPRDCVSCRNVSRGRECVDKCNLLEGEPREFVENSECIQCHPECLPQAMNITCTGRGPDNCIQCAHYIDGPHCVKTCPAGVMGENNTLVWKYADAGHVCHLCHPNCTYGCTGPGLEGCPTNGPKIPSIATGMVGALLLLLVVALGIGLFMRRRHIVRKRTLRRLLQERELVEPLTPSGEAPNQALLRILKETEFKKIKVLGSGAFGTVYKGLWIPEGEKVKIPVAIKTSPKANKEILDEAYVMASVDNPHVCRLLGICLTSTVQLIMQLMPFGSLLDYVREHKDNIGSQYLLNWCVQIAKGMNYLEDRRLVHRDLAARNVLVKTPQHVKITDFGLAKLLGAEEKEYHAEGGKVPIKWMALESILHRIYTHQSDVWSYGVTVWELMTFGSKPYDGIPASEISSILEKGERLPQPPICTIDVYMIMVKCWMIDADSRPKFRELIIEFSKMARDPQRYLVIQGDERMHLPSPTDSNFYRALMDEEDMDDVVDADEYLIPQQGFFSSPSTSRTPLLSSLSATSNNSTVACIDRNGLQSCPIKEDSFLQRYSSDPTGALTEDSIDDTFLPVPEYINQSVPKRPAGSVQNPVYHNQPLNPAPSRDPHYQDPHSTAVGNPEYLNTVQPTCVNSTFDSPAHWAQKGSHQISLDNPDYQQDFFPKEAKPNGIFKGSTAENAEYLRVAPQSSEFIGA
Procedure: (§1) This small number of virtual hits exemplifies the difficulty in discovering the fourth-generation inhibitors that are specific for the triple mutant. This can be understood in the context of the high structural similarity between the mutant and the wild type. All virtual hits were assessed for the presence of inhibitory activity against the d746-750/T790M/C797S mutant and the wild type via in vitro radiometric ([γ-^33P]-ATP) kinase assays (Reaction Biology Corp., Malvern, PA, USA). As a consequence of virtual and experimental screening, four molecules were identified as low-micromolar inhibitors of d746-750/T790M/C797S mutant. Actually, none of the four molecules have previously been reported as EGFR kinase inhibitors. With respect to disproving the possibility of acting as a false positive in enzyme inhibition assays, all four inhibitors were examined in the public ZINC database to confirm the lack of any substructure in pan assay interference compounds (PAINS).
(§2) The inhibitory activities of all compounds with respect to the wild type and the d746-750/T790M/C797S mutant of EGFR were measured by Reaction Biology Corp. (Malvern, PA, USA) using the radiometric kinase assays ([γ-^33P]-ATP). Briefly, the enzymatic reaction mixtures contained an artificial substrate peptide, poly-Glu-Tyr (4:1) in freshly prepared base reaction buffer (20 mM HEPES of pH 7.5, 10 mM MgCl2, 1 mM EGTA, 0.02% Brij-35, 0.02 mg/mL BSA, 0.1 mM Na3VO4, 2 mM DTT, 1% DMSO). Wild-type and mutant EGFR were delivered into the substrate solution and gently mixed. Each inhibitor in 100% DMSO in a serial dilution was then delivered to the reaction mixture using the acoustic dispensing system (Echo550; nanoliter range). To initiate the enzymatic reaction, ^33P-ATP with a specific activity of 10 μCi/μL was added into the reaction mixture, and the mixture was further incubated for 2 h at room temperature. Radioactivity was then monitored by the filter-binding method after reactions were spotted onto P81 ion exchange paper and the filters were washed extensively in 0.75% phosphoric acid. Kinase activity data were expressed as the percent remaining kinase activity in test samples compared to vehicle (dimethyl sulfoxide) reactions. IC50 values and curve fits were calculated with Prism Software (GraphPad Software) at 10 different concentrations. Staurosporine was employed as the positive control in this study.

[4] = biological target: T2, wild type EGFR (Homo sapiens, UniProt P00533); test: radiometric ([γ-33P]-ATP) kinase assay, wild-type EGFR; format: biochemical
T2 construct: purchased Reaction Biology Corp. (Malvern, PA, USA)
T2 sequence (P00533 25-1210): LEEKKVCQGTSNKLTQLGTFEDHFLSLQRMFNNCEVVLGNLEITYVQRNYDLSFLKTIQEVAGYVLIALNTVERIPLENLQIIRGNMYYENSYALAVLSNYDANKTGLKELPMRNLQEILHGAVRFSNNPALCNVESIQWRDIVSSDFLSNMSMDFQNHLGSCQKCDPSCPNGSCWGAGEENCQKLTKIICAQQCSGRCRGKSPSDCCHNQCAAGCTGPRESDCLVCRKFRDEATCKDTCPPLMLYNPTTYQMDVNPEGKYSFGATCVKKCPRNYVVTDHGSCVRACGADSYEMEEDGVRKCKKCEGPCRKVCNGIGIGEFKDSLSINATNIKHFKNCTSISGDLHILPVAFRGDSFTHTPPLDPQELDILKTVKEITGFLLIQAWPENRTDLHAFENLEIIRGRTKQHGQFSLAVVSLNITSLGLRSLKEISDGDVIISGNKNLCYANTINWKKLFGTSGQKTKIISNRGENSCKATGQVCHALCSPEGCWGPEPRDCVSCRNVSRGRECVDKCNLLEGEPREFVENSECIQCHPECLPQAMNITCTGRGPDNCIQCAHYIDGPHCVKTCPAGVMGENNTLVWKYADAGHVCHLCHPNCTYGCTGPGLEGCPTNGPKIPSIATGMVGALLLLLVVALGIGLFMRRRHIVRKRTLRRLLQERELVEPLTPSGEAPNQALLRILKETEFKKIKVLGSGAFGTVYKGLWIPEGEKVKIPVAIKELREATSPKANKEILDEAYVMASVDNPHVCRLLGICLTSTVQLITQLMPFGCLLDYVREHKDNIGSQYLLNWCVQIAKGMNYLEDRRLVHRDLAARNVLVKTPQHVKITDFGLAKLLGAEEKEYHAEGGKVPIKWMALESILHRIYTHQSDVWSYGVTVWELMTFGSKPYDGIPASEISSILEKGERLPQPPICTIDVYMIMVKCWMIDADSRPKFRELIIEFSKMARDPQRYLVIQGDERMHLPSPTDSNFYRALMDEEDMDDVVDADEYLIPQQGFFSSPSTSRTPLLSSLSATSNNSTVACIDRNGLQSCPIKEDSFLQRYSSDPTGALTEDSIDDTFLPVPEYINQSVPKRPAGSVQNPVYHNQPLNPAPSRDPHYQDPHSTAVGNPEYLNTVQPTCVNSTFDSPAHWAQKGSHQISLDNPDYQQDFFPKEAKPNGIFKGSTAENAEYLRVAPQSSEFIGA
Procedure: as §1, §2

[5] = Table 1, mean ± standard deviations of two experiments, read-out: IC50 d746-750/T790M/C797S
[6] = Table 1, mean ± standard deviations of two experiments, read-out: IC50 Wild Type
[7] = Table 2, derivatives of 1, mean ± SD of two experiments, read-out: IC50 EGFR^d746-750/T790M/C797S
[8] = Table 2, derivatives of 1, wild type, mean ± SD of two experiments, read-out: IC50 EGFR
[9] = Table 3, derivatives of 2, mean ± SD of two experiments, read-out: IC50 EGFR^d746-750/T790M/C797S
[10] = Table 3, derivatives of 2, wild type, mean ± SD of two experiments, read-out: IC50 EGFR

SMILES | Selectivity ([3]; Table 2) | Selectivity ([3]; Table 3) | IC50 [3, 7] [µM] | IC50 [4, 8] [µM] | IC50 [3, 9] [µM] | IC50 [4, 10] [µM] | other results
COc1cc(N2CCC(N3CCN(C)CC3)CC2)ccc1Nc1ncc(Cl)c(Nc2ccccc2P(C)(C)=O)n1 [Brigatinib, reference compound] |  |  |  |  |  |  | IC50 [1]: 0.067 ± 0.014 µM; Selectivity [1]: 23.3; IC50 [2]: 1.56 ± 0.45 µM
CC1CCCCN1Cc1c(O)ccc2c1O/C(=C\c1cc3ccccc3o1)C2=O (stereo not shown) [Compound 1] | 34.5 |  |  |  |  |  | IC50 [3, 5]: 2.11 ± 0.56 µM; Selectivity Index (IC50^WT/IC50^mutant) ([3]; Table 1): 34.5; IC50 [4, 6]: 72.7 ± 4.8 µM
Oc1ccccc1-c1nc(NCCN2CCOCC2)c2ccccc2n1 [Compound 2] |  | 21.4 |  |  |  |  | IC50 [3, 5]: 1.73 ± 0.38 µM; Selectivity Index (IC50^WT/IC50^mutant) ([3]; Table 1): 21.4; IC50 [4, 6]: 37.1 ± 2.3 µM
COc1ccccc1Nc1nc(N)nc(-c2oc3ccccc3c2C)n1 [Compound 3] |  |  |  |  |  |  | IC50 [3, 5]: 2.89 ± 0.91 µM; Selectivity Index (IC50^WT/IC50^mutant) ([3]; Table 1): 12.3; IC50 [4, 6]: 35.5 ± 3.5 µM
c1ccc(CNc2ncnc3oc(-c4ccccc4)c(-c4ccccc4)c23)cc1 [Compound 4] |  |  |  |  |  |  | IC50 [3, 5]: 0.802 ± 0.055 µM; Selectivity Index (IC50^WT/IC50^mutant) ([3]; Table 1): 0.00733; biochemical potency against the wild-type EGFR (in words) [4]: nanomolar level; IC50 [4, 6]: 0.00588 ± 0.00098 µM; higher inhibitory activity against the wild type than against the d746-750/T790M/C797S mutant ([4]; enzyme assays): 136 fold
O=C1/C(=C/c2cc3ccccc3o2)Oc2c1ccc(O)c2CN1CCCCC1 [Compound 5, (Z)-2-(benzofuran-2-ylmethylene)-6-hydroxy-7-(piperidin-1-ylmethyl)benzofuran-3(2H)-one] | 22.8 |  | 3.01 ± 0.73 | 68.7 ± 3.4 |  |  | 
CC1CCCN(Cc2c(O)ccc3c2O/C(=C\c2cc4ccccc4o2)C3=O)C1 (stereo not shown) [Compound 6, (Z)-2-(benzofuran-2-ylmethylene)-6-hydroxy-7-((3-methylpiperidin-1-yl)methyl)benzofuran-3(2H)-one] | 33.9 |  | 1.94 ± 0.35 | 65.7 ± 6 |  |  | 
CC1CCN(Cc2c(O)ccc3c2O/C(=C\c2cc4ccccc4o2)C3=O)CC1 [Compound 7, (Z)-2-(benzofuran-2-ylmethylene)-6-hydroxy-7-((4-methylpiperidin-1-yl)methyl)benzofuran-3(2H)-one] | 14.8 |  | 5.29 ± 1.8 | 78.7 ± 4.6 |  |  | 
COc1ccc2oc(/C=C3\Oc4c(ccc(O)c4CN4CCCC(C)C4)C3=O)cc2c1 (stereo not shown) [Compound 8, (Z)-6-hydroxy-2-((5-methoxybenzofuran-2-yl)methylene)-7-((3-methylpiperidin-1-yl)methyl)benzofuran-3(2H)-one] | >4.98 |  | 20.1 ± 7.2 | > 100 |  |  | 
O=C1/C(=C/c2cc3ccccc3o2)Oc2c1ccc(O)c2CN1CCNCC1 [Compound 9, (Z)-2-(benzofuran-2-ylmethylene)-6-hydroxy-7-(piperazin-1-ylmethyl)benzofuran-3(2H)-one] |  |  | 1.1 ± 0.36 | 21.3 ± 6.3 |  |  | 
COc1ccc2oc(/C=C3\Oc4c(ccc(O)c4CN4CCNCC4)C3=O)cc2c1 [Compound 10, (Z)-6-hydroxy-2-((5-methoxybenzofuran-2-yl)methylene)-7-(piperazin-1-ylmethyl)benzofuran-3(2H)-one] | 22.6 |  | 1.63 ± 0.43 | 36.8 ± 3.9 |  |  | 
O=C1/C(=C/c2cc3cc(O)ccc3o2)Oc2c1ccc(O)c2CN1CCNCC1 [Compound 11, (Z)-6-hydroxy-2-((5-hydroxybenzofuran-2-yl)methylene)-7-(piperazin-1-ylmethyl)benzofuran-3(2H)-one] | 1.45 |  | 0.715 ± 0.242 | 1.04 ± 0.16 |  |  | 
CCN(CC)CCCNc1nc(-c2ccccc2O)nc2ccccc12 [Compound 12, 2-(4-((3-(diethylamino)propyl)amino)quinazolin-2-yl)phenol] |  | >96.9 |  |  | 0.516 ± 0.206 | > 50 | 
CCN(CC)CCCNc1nc(-c2cc(C#N)ccc2O)nc2ccccc12 [Compound 13, 3-(4-((3-(diethylamino)propyl)amino)quinazolin-2-yl)-4-hydroxybenzonitrile] |  | 319 |  |  | 0.0265 ± 0.0084 | 8.45 ± 1.89 | 
Oc1ccccc1-c1nc(NCc2cscn2)c2ccccc2n1 [Compound 14, 2-(4-((thiazol-4-ylmethyl)amino)quinazolin-2-yl)phenol] |  | >44.6 |  |  | 1.12 ± 0.21 | > 50 | 
N#Cc1ccc(O)c(-c2nc(NCc3cc[nH]c3)c3ccccc3n2)c1 [Compound 16, 3-(4-(((1H-pyrrol-3-yl)methyl)amino)quinazolin-2-yl)-4-hydroxybenzonitrile] |  | >693 |  |  |  | > 50 | 
N#Cc1ccc(O)c(-c2nc(NCc3cocn3)c3ccccc3n2)c1 [Compound 17, 4-hydroxy-3-(4-((oxazol-4-ylmethyl)amino)quinazolin-2-yl)benzonitrile] |  | >84.3 |  |  | 0.593 ± 0.076 | > 50 | 
N#Cc1ccc(O)c(-c2nc(NCc3c[nH]cn3)c3ccccc3n2)c1 [Compound 18, 3-(4-(((1H-imidazol-4-yl)methyl)amino)quinazolin-2-yl)-4-hydroxybenzonitrile] |  | >6693 |  |  | 0.00747 ± 0.00039 | > 50 | biochemical potency against the d746-750/T790M/C797S mutant (in words) [3]: low-nanomolar level; selectivity in the inhibition of EGFR^d746-750/T790M/C797S over the wild type ([3]; enzyme assays): more than 6690 fold; antiproliferative activity against the d746-750/T790M/C797S mutant cell (in words) [1]: submicromolar level; IC50 [1]: 0.78 ± 0.31 µM; Selectivity [1]: >6.41; IC50 [2]: > 5 µM
Cn1cnc(CNc2nc(-c3cc(C#N)ccc3O)nc3ccccc23)c1 [Compound 19, 4-hydroxy-3-(4-(((1-methyl-1H-imidazol-4-yl)methyl)amino)quinazolin-2-yl)benzonitrile] |  | >14793 |  |  | 0.00338 ± 0.00102 | > 50 | biochemical potency against the d746-750/T790M/C797S mutant (in words) [3]: low-nanomolar; selectivity index / factor, triple mutant over the wild type ([3]; enzyme assays): higher than 10^4; antiproliferative activity against the d746-750/T790M/C797S mutant cell (in words) [1]: submicromolar level; IC50 [1]: 0.74 ± 0.22 µM; Selectivity [1]: 3.34; IC50 [2]: 2.47 ± 0.89 µM
N#Cc1ccc(O)c(-c2nc(NCCc3c[nH]cn3)c3ccccc3n2)c1 [Compound 20, 3-(4-((2-(1H-imidazol-4-yl)ethyl)amino)quinazolin-2-yl)-4-hydroxybenzonitrile] |  | >10331 |  |  | 0.00484 ± 0.00063 | > 50 | biochemical potency against the d746-750/T790M/C797S mutant (in words) [3]: low-nanomolar; selectivity index / factor, triple mutant over the wild type ([3]; enzyme assays): higher than 10^4
Cn1cnc(CNc2nc(-c3cc(C=O)ccc3O)nc3ccccc23)c1 [Compound 21, 4-hydroxy-3-(4-(((1-methyl-1H-imidazol-4-yl)methyl)amino)quinazolin-2-yl)benzaldehyde] |  | 118 |  |  | 0.00793 ± 0.00168 | 0.935 ± 0.173 | 
